Laboratory results published in patent US11649246B2, “Salts of 4-amino-N-(l-((3-chloro-2-fluorophenyl)amino)-6-methylisoquinolin-5-yl)thieno[3,2-D]pyrimidine-7-carboxamide, and crystalline forms thereof” (Hanmi Pharm. Co., Ltd., priority 2017, dated 2023).

Experiments:
Type in all cases: physicochemical
[1] = Long-term stability at 20° C. to 30° C., 60% relative humidity, protection from light; settings: 60% RH
Experimental: The stability of crystalline Formula (I) bis-hydrochloride Form I was evaluated at 3 months, 6 months, 9 months, 12 months, 18 months and 24 under conditions of 20° C. to 30° C. at 60% relative humidity and protection from light. Stability criteria included the following. At each interval from 3 to 24 months the crystalline Formula (I) bis-hydrochloride Form I appeared as a pale brown to off-white powder. Identification was performed by IR, PXRD and HPLC methods as described elsewhere herein with results reported as pass/fail. Purity was determined by HPLC with known impurities at relative retention times (“RRT”) of 1.1, 1.7 and 2.1. The results are shown in Table 22 where “Init” refers to initial, “Iden” refers to identification, “Imp” refers to impurity, “A.U.I.” refers to any unspecified impurity, “T.U.I.” refers to total unspecified impurity, “T.I.” refers to total impurities, and “N.D.” refers to not detected. The PXRD results at initial, 6 months, 12 months and 24 months are depicted in FIG. 33.

[2] = Stress stability test at 60° C.
Experimental: In order to compare physicochemical stability among the crystalline form prepared in Example 3 (crystalline Formula (I) bis-hydrochloride Form I) and 16 (Formula (I) crystalline free base), and the amorphous form prepared in Comparative Example 1, a stress stability test was conducted by storing samples at 60° C., for different periods of time up to 4 weeks.

[3] = Partition / distribution coefficient octanol-water (Sirius T3); settings: octanol/water
Experimental: The partition coefficient, Log P, was measured with a T3 (Sirius Analytical Instrument Ltd., UK). About 1 mg of Formula (I) bis-hydrochloride was added to a 15 mL GLpKa beaker, dissolved with octanol/150 mM KCl, adjusted to pH 1.8 with 0.5 N HCl, and titrated up to pH 12.2 with 0.5 N KOH. The partition coefficient of the octanol-water system was determined by correcting the difference between titration curves of the blank from the titration curve, by inserting the value of the dissociation constant measured previously.

A.U.I. (any unspecified impurity) ([1]; 3 mo): 0.03%
Identity HPLC ([1]; 3 mo): pass
Imp 1 ([1]; 3 mo): 0.02%
Imp RRT 1.7 ([1]; 3 mo): 0.08%
Purity ([1]; 3 mo): 99.8%
T.I. (total impurities) ([1]; 3 mo): 0.15%
T.U.I (total unspecified impurity) ([1]; 3 mo): 0.05%
A.U.I. (any unspecified impurity) ([1]; 6 mo): 0.03%
Identity HPLC ([1]; 6 mo): pass
Identity IR ([1]; 6 mo): pass
Identity PXRD ([1]; 6 mo): pass
Imp 1 ([1]; 6 mo): 0.03%
Imp RRT 1.7 ([1]; 6 mo): 0.08%
Purity ([1]; 6 mo): 99.8%
T.I. (total impurities) ([1]; 6 mo): 0.16%
T.U.I (total unspecified impurity) ([1]; 6 mo): 0.05%
A.U.I. (any unspecified impurity) ([1]; 9 mo): 0.03%
Identity HPLC ([1]; 9 mo): pass
Imp 1 ([1]; 9 mo): 0.02%
Imp RRT 1.7 ([1]; 9 mo): 0.08%
Purity ([1]; 9 mo): 99.8%
T.I. (total impurities) ([1]; 9 mo): 0.16%
T.U.I (total unspecified impurity) ([1]; 9 mo): 0.05%
A.U.I. (any unspecified impurity) ([1]; 12 mo): 0.06%
Identity HPLC ([1]; 12 mo): pass
Identity IR ([1]; 12 mo): Pass
Identity PXRD ([1]; 12 mo): Pass
Imp 1 ([1]; 12 mo): 0.02%
Imp RRT 1.7 ([1]; 12 mo): 0.02%
Purity ([1]; 12 mo): 99.8%
T.I. (total impurities) ([1]; 12 mo): 0.14%
T.U.I (total unspecified impurity) ([1]; 12 mo): 0.09%
A.U.I. (any unspecified impurity) ([1]; 18 mo): 0.06%
Identity HPLC ([1]; 18 mo): pass
Imp 1 ([1]; 18 mo): 0.02%
Imp RRT 1.7 ([1]; 18 mo): 0.02%
Purity ([1]; 18 mo): 99.9%
T.I. (total impurities) ([1]; 18 mo): 0.13%
T.U.I (total unspecified impurity) ([1]; 18 mo): 0.09%
A.U.I. (any unspecified impurity) ([1]; 24 mo): 0.06%
Identity HPLC ([1]; 24 mo): pass
Imp 1 ([1]; 24 mo): 0.02%
Imp RRT 1.7 ([1]; 24 mo): 0.02%
Purity ([1]; 24 mo): 99.8%
T.I. (total impurities) ([1]; 24 mo): 0.15%
T.U.I (total unspecified impurity) ([1]; 24 mo): 0.11%
A.U.I. (any unspecified impurity) ([1]; Init): 0.04%
Identity HPLC ([1]; Init): pass
Identity IR ([1]; Init): pass
Identity PXRD ([1]; Init): pass
Imp 1 ([1]; Init): 0.01%
Imp RRT 1.7 ([1]; Init): 0.08%
Purity ([1]; Init): 99.9%
T.I. (total impurities) ([1]; Init): 0.14%
T.U.I (total unspecified impurity) ([1]; Init): 0.05%
Purity(%) (A % by HPLC) ([2]; 2 weeks): 99.8%
Total impurities(%) (A % by HPLC) ([2]; 2 weeks): 0.16%
Purity(%) (A % by HPLC) ([2]; 4 weeks): 99.8%
Total impurities(%) (A % by HPLC) ([2]; 4 weeks): 0.23%
Purity(%) (A % by HPLC) ([2]; 1 day): 99.8%
Total impurities(%) (A % by HPLC) ([2]; 1 day): 0.17%
Purity(%) (A % by HPLC) ([2]; 3 days): 99.8%
Total impurities(%) (A % by HPLC) ([2]; 3 days): 0.15%
Purity(%) (A % by HPLC) ([2]; 7 days): 99.8%
Total impurities(%) (A % by HPLC) ([2]; 7 days): 0.19%
Purity(%) (A % by HPLC) ([2]; Initial): 99.8%
Total impurities(%) (A % by HPLC) ([2]; Initial): 0.17%
logD ([3]; pH 1): 0.02
logD ([3]; pH 1.2): 0.05
logD ([3]; pH 2): 0.77
logD ([3]; pH 3): 2.64
logD ([3]; pH 4): 4.26
logD ([3]; pH 5): 5.06
logD ([3]; pH 6): 5.22
logD ([3]; pH 6.5): 5.24
logD ([3]; pH 7): 5.24
logD ([3]; pH 8): 5.24
logD ([3]; pH 9): 5.23
logD ([3]; pH 10): 5.11
logD ([3]; pH 11): 4.71
logD ([3]; pH 12): 4.4
Compound: Cc1ccc2c(Nc3cccc(Cl)c3F)nccc2c1NC(=O)c1csc2c(N)ncnc12 [Example 3, 4-amino-N-(1-((3-chloro-2-fluorophenyl)amino)-6-methylisoquinolin-5-yl)thieno[3,2-d]pyrimidine-7-carboxamide]
physicochemical stability (summary in words) ([2]; up to 4 weeks, listed as crystalline form (Form I) of the dihydrochloride): remarkably superior stability over the amorphous form
